Laboratory results published in patent US20250302775A1, “METHODS FOR THE TREATMENT OF DEPRESSION” (Autobahn Therapeutics, Inc., priority 2022, published 2025).

Target: T1, recombinant human FAAH (rhFAAH) (Homo sapiens, UniProt O00519)
T1 construct: purchased Cayman Chemical (Ann Arbor, MI, USA)
T1 sequence (O00519 1-579): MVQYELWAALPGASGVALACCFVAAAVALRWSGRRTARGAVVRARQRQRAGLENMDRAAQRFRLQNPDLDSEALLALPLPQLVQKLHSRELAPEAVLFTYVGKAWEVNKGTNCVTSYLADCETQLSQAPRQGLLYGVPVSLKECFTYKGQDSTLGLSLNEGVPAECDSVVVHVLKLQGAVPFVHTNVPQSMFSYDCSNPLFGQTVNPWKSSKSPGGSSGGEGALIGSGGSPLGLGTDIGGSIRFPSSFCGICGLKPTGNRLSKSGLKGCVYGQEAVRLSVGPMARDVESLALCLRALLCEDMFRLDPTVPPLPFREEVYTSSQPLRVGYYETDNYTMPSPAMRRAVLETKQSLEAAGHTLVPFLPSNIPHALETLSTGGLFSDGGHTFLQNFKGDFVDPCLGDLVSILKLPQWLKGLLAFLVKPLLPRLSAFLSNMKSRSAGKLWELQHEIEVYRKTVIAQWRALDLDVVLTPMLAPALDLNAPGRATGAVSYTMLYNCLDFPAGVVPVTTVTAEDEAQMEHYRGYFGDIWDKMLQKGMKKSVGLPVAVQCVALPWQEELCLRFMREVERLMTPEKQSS
Test: FAAH substrate evaluation: formation of acid metabolite
Format: biochemical
Details: 0.5 ng/μL rhFAAH, 1 μM test compound, room temperature, pH 8.0, 0-60 minutes
Experimental: Purified recombinant human FAAH (rhFAAH) was purchased from Cayman Chemical (Ann Arbor, MI, USA). The total volume for each incubation was 400 μL containing a final 0.5 ng/μL rhFAAH, 1 μM test compound, 1.25% ethanol or 1 μM PF-3845 (FAAH inhibitor), and 0.1% bovine serum albumin in Tris-EDTA buffer at pH 8.0). The positive control was LL-341001. The incubation was conducted at the room temperature. At 0, 5, 15, 30 and 60 minutes, an aliquot of 30 μL reaction mixtures was removed and mixed with 300 μL acetonitrile containing 5 ng/mL terfenadine and 10 ng/mL tolbutamide as internal standards to quench the reaction. The resulting mixture was centrifuged at 4000 rpm, 4° C. for 15 minutes, and 100 μL supernatant was ready for LC-MS/MS analysis to measure the formation of acid metabolite.
Acquity Ultra Performance LC system from Waters was used for sample analysis. The chromatography was performed on a reverse phase Kinetex 2.6 μm C18 column, 2.1×30 mm, 100 Å. The mobile phase A comprised of 0.1% formic acid in water and mobile phase B comprised of 0.1% formic acid in acetonitrile with a 2-min run time at the flow rate of 0.8 mL/min for the acid metabolite from positive control or a 1.5 min run time at the flow rate of 0.9 mL/min for the acid metabolite of test compounds. The mass spectrometer (API-5500 and API Q Trap 4000 Applied Biosystems/MDS SCIEX Instruments, Framingham, MA, USA) was operated under ESI positive or negative ion MRM mode.
The formation of acid metabolite was monitored and quantified using one calibration point of 1 μM. The observed rate constant (ke) for the acid metabolite formation was calculated by plotting the metabolite concentration versus time of incubation with the slope being ke and is shown in Table 1.

| Compound | ke (observed rate constant for the acid metabolite formation) |
| --- | --- |
| CC(C)c1c(O)ccc(Cc2c(Cl)cc(OCC(=O)Nc3ccncn3)cc2Cl)c1F [Compound 110] | A (A = ke is more than or equal to 0.1) |
| CCCN(C)C(=O)COc1cc(Cl)c(Cc2ccc(O)c(C(C)C)c2)c(Cl)c1 [Compound 129] | B (B = ke is less than 0.1 and more than 0) |
| CC(C)c1c(O)ccc(Cc2c(Cl)cc(OCC(=O)N(C)C)c(F)c2Cl)c1F [Compound 40] | B (B = ke is less than 0.1 and more than 0) |
| CC(C)c1cc(Cc2c(Cl)cc(OCC(=O)NC(CO)CO)cc2Cl)ccc1O [Compound 11] | B (B = ke is less than 0.1 and more than 0) |
| CC(C)c1c(O)ccc(Cc2c(Cl)cc(OCC(=O)Nc3cncnc3)cc2Cl)c1F [Compound 109] | A (A = ke is more than or equal to 0.1) |
| Cc1noc(NC(=O)COc2cc(Cl)c(Cc3ccc(O)c(C(C)C)c3)c(Cl)c2)c1C [Compound 103] | A (A = ke is more than or equal to 0.1) |
| CC(C)c1cc(Cc2c(Cl)cc(OCC(=O)NC[C@H](C)O)cc2Cl)ccc1O [Compound 8] | B (B = ke is less than 0.1 and more than 0) |
| CC(C)c1cc(Cc2c(Cl)cc(OCC(=O)NC3CCCCC3)cc2Cl)ccc1O [Compound 105] | C (C = ke is 0) |
| CCN(C)C(=O)COc1cc(Cl)c(Cc2ccc(O)c(C(C)C)c2F)c(Cl)c1 [Compound 34] | C (C = ke is 0) |
| CC(C)c1cc(Cc2c(Cl)cc(OCC(=O)NCCF)cc2Cl)ccc1O [Compound 14] | A (A = ke is more than or equal to 0.1) |
| CC(C)c1cc(Cc2c(Cl)cc(OCC(=O)NCCS(C)(=O)=O)cc2Cl)ccc1O [Compound 30] | A (A = ke is more than or equal to 0.1) |
| CC(C)c1cc(Cc2c(Cl)cc(OCC(=O)NC3CCC3)cc2Cl)ccc1O [Compound 127] | B (B = ke is less than 0.1 and more than 0) |
| CCNC(=O)COc1cc(Cl)c(Cc2ccc(O)c(C(C)C)c2)c(Cl)c1 [Compound 2] | A (A = ke is more than or equal to 0.1) |
| CCNC(=O)COc1cc(Cl)c(Cc2ccc(O)c(C(C)C)c2F)c(Cl)c1 [Compound 33] | A (A = ke is more than or equal to 0.1) |
| CC(C)c1cc(Cc2c(Cl)cc(OCC(=O)NCCN)cc2Cl)ccc1O [Compound 12] | B (B = ke is less than 0.1 and more than 0) |
| CNC(=O)COc1cc(Cl)c(Cc2ccc(O)c(C(C)C)c2)c(Cl)c1F [Compound 37] | B (B = ke is less than 0.1 and more than 0) |
| CC(C)c1c(O)ccc(Cc2c(Cl)cc(OCC(N)=O)cc2Cl)c1F [Compound 35] | A (A = ke is more than or equal to 0.1) |
| CC(C)c1cc(Cc2c(Cl)cc(OCC(=O)NC3COC3)cc2Cl)ccc1O [Compound 18] | A (A = ke is more than or equal to 0.1) |
| CNC(=O)COc1cc(F)c(Cc2ccc(O)c(C(C)C)c2)c(Cl)c1F [Compound 42] | A (A = ke is more than or equal to 0.1) |
| CC(C)c1cc(Cc2c(Cl)cc(OCC(=O)NCC(F)F)cc2Cl)ccc1O [Compound 15] | A (A = ke is more than or equal to 0.1) |
| CC(C)c1cc(Cc2c(Cl)cc(OCC(=O)NCCO)cc2Cl)ccc1O [Compound 6] | A (A = ke is more than or equal to 0.1) |
| CON(C)C(=O)COc1cc(Cl)c(Cc2ccc(O)c(C(C)C)c2F)c(Cl)c1 [Compound 44] | A (A = ke is more than or equal to 0.1) |

| Compound | ke (observed rate constant for the acid metabolite formation) |
| --- | --- |
| CONC(=O)COc1cc(Cl)c(Cc2ccc(O)c(C(C)C)c2)c(Cl)c1 [Compound 28] | A (A = ke is more than or equal to 0.1) |
| CC(C)c1cc(Cc2c(Cl)cc(OCC(=O)Nc3cccc(F)c3)cc2Cl)ccc1O [Compound 25] | A (A = ke is more than or equal to 0.1) |
| CC(C)c1cc(Cc2c(Cl)cc(OCC(=O)Nc3cccc(O)c3)cc2Cl)ccc1O [Compound 21] | A (A = ke is more than or equal to 0.1) |
| CCCNC(=O)COc1cc(Cl)c(Cc2ccc(O)c(C(C)C)c2)c(Cl)c1 [Compound 3] | A (A = ke is more than or equal to 0.1) |
| CC(C)c1cc(Cc2c(Cl)cc(OCC(=O)N[C@@H](C)CO)cc2Cl)ccc1O [Compound 10] | A (A = ke is more than or equal to 0.1) |
| CC(C)c1cc(Cc2c(Cl)cc(OCC(=O)NCC(F)(F)F)cc2Cl)ccc1O [Compound 16] | A (A = ke is more than or equal to 0.1) |
| CC(C)c1cc(Cc2c(Cl)cc(OCC(=O)N(C)CCO)cc2Cl)ccc1O [Compound 123] | B (B = ke is less than 0.1 and more than 0) |
| C=CCN(C)C(=O)COc1cc(Cl)c(Cc2ccc(O)c(C(C)C)c2)c(Cl)c1 [Compound 128] | B (B = ke is less than 0.1 and more than 0) |
| C#CCNC(=O)COc1cc(Cl)c(Cc2ccc(O)c(C(C)C)c2)c(Cl)c1 [Compound 5] | A (A = ke is more than or equal to 0.1) |
| CC(C)CN(C)C(=O)COc1cc(Cl)c(Cc2ccc(O)c(C(C)C)c2)c(Cl)c1 [Compound 120] | C (C = ke is 0) |
| CC(C)c1cc(Cc2c(Cl)cc(OCC(=O)NO)cc2Cl)ccc1O [Compound 26] | A (A = ke is more than or equal to 0.1) |
| CC(C)c1cc(Cc2c(Cl)cc(OCC(=O)NC3CC3)cc2Cl)ccc1O [Compound 17] | A (A = ke is more than or equal to 0.1) |
| CC(C)c1cc(Cc2c(Cl)cc(OCC(=O)N3CCCC3)cc2Cl)ccc1O [Compound 117] | B (B = ke is less than 0.1 and more than 0) |
| CC#CCN(C)C(=O)COc1cc(Cl)c(Cc2ccc(O)c(C(C)C)c2)c(Cl)c1 [Compound 107] | B (B = ke is less than 0.1 and more than 0) |
| CC(C)NC(=O)COc1cc(Cl)c(Cc2ccc(O)c(C(C)C)c2)c(Cl)c1 [Compound 126] | A (A = ke is more than or equal to 0.1) |
| CC(C)c1cc(Cc2c(Cl)cc(OCC(=O)NN)cc2Cl)ccc1O [Compound 27] | A (A = ke is more than or equal to 0.1) |
| CC(C)c1cc(Cc2c(Cl)cc(OCC(=O)Nc3cnccn3)cc2Cl)ccc1O [Compound 102] | A (A = ke is more than or equal to 0.1) |
| CC(C)c1cc(Cc2c(Cl)cc(OCC(=O)N(C)CCF)cc2Cl)ccc1O [Compound 125] | B (B = ke is less than 0.1 and more than 0) |
| COc1ccc(NC(=O)COc2cc(Cl)c(Cc3ccc(O)c(C(C)C)c3)c(Cl)c2)cn1 [Compound 101] | A (A = ke is more than or equal to 0.1) |
| CC(C)c1cc(Cc2c(Cl)cc(OCC(=O)NCCc3ccc(O)c(O)c3)cc2Cl)ccc1O [Compound 24] | B (B = ke is less than 0.1 and more than 0) |
| CC(C)c1cc(Cc2c(Cl)cc(OCC(=O)NC(C)(C)C)cc2Cl)ccc1O [Compound 119] | C (C = ke is 0) |
